According to patent US20200029564A1, “NOVEL 5-SUBSTITUTED IMIDAZOLYLMETHYLOXIRANE DERIVATIVES” (Bayer CropScience Aktiengesellschaft, priority 2016, published 2020):

Columns and labels:
Septoria tritici = assay: In vivo preventive test on Septoria tritici (leaf spot on wheat); conditions: Zymoseptoria tritici, 576 h; 500 ppm of active ingredient; preventive spray on young wheat plants; evaluated 24 days after inoculation; read-out: efficacy
Description: Example B: In Vivo Preventive Test on Septoria tritici (Leaf Spot on Wheat) [table] The active ingredients are made soluble and homogenized in a mixture of Dimethyl sulfoxide/Acetone/Tween® 80 and then diluted in water to the desired concentration. The young plants of wheat are treated by spraying the active ingredient prepared as described above. Control plants are treated only with an aqueous solution of Acetone/Dimethyl sulfoxide/Tween® 80. After 24 hours, the plants are contaminated by spraying the leaves with an aqueous suspension of Septoria tritici spores. The contaminated wheat plants are incubated for 72 hours at 18° C. and at 100% relative humidity and then for 21 days at 20° C. and at 90% relative humidity. The test is evaluated 24 days after the inoculation. 0% means an efficacy which corresponds to that of the control plants while an efficacy of 100% means that no disease is observed.

Uromyces appendiculatus = assay: In vivo preventive test on Uromyces appendiculatus (bean rust); conditions: 264 h, 500 ppm of active ingredient, preventive spray on young bean plants, evaluated 11 days after inoculation, read-out: efficacy
Description: (§1) Example D: In Vivo Preventive Test on Uromyces appendiculatus (Bean Rust) [table] The active ingredients are made soluble and homogenized in a mixture of Dimethyl sulfoxide/Acetone/Tween® 80 and then diluted in water to the desired concentration. The young plants of bean are treated by spraying the active ingredient prepared as described above. Control plants are treated only with an aqueous solution of Acetone/Dimethyl sulfoxide/Tween® 80. After 24 hours, the plants are contaminated by spraying the leaves with an aqueous suspension of Uromyces appendiculatus spores. The contaminated bean plants are incubated for 24 hours at 20° C. and at 100% relative humidity and then for 10 days at 20° C. and at 70-80% relative humidity. The test is evaluated 11 days after the inoculation. 0% means an efficacy which corresponds to that of the control plants while an efficacy of 100% means that no disease is observed.

Sphaerotheca fuliginea = assay: In vivo preventive test on Sphaerotheca fuliginea (powdery mildew on cucurbits); conditions: Podosphaera fuliginea, 360 h; 500 ppm of active ingredient; preventive spray on young gherkin plants; evaluated 15 days after inoculation; read-out: efficacy
Description: Example C: In Vivo Preventive Test on Sphaerotheca fuliginea (Powdery Mildew on Cucurbits) [table] The active ingredients are made soluble and homogenized in a mixture of Dimethyl sulfoxide/Acetone/Tween® 80 and then diluted in water to the desired concentration. The young plants of gherkin are treated by spraying the active ingredient prepared as described above. Control plants are treated only with an aqueous solution of Acetone/Dimethyl sulfoxide/Tween® 80. After 24 hours, the plants are contaminated by spraying the leaves with an aqueous suspension of Sphaerotheca fuidiginea spores. The contaminated gherkin plants are incubated for 72 hours at 18° C. and at 100% relative humidity and then for 12 days at 20° C. and at 70-80% relative humidity. The test is evaluated 15 days after the inoculation. 0% means an efficacy which corresponds to that of the control plants while an efficacy of 100% means that no disease is observed.

[1] = LogP by HPLC on reversed phase columns (EEC directive 79/831 Annex V.A8); format: physicochemical; conditions: method [a]: LC-UV, acidic range, 0.1% formic acid in water and acetonitrile as eluent; for chromatographic logP: reversed phase HPLC column
Description: [table] If more than one Log P value is available within the same method, all the values are given and separated by “+”. Calibration was done with straight-chain alkan2-ones (with 3 to 16 carbon atoms) with known Log P values (measurement of Log P values using retention times with linear interpolation between successive alkanones). Lambda-max-values were determined using UV-spectra from 200 nm to 400 nm and the peak values of the chromatographic signals.

[2] = system: Blumeria graminis fsp. hordei; assay: In vivo preventive Blumeria test (barley); conditions: 168 h, 500 ppm of active ingredient, preventive spray on young barley plants, evaluated 7 days after inoculation, read-out: efficacy
Description: Example F: In Vivo Preventive Blumeria Test (Barley) [table] To produce a suitable preparation of active compound, 1 part by weight of active compound or active compound combination is mixed with the stated amounts of solvent and emulsifier, and the concentrate is diluted with water to the desired concentration. To test for preventive activity, young plants are sprayed with the preparation of active compound or active compound combination at the stated rate of application. After the spray coating has been dried, the plants are dusted with spores of Blumeria graminis fsp. hordei. The plants are placed in the greenhouse at a temperature of approximately 18° C. and a relative atmospheric humidity of approximately 80% to promote the development of mildew pustules. The test is evaluated 7 days after the inoculation. 0% means an efficacy which corresponds to that of the untreated control, while an efficacy of 100% means that no disease is observed.

Puccinia recondita = assay: In vivo preventive test on Puccinia recondita (brown rust on wheat); conditions: 264 h, 500 ppm of active ingredient, preventive spray on young wheat plants, evaluated 11 days after inoculation, read-out: efficacy
Description: as §1, with “A:” for “D:”, “Puccinia recondita (Brown Rust on Wheat)” for “Uromyces appendiculatus (Bean Rust)”, “wheat” for “bean”, “Puccinia recondita” for “Uromyces appendiculatus”

| chromatographic logP [1] | LogP [1] | SMILES | pest or weed control at 500 ppm (Septoria tritici) | pest or weed control at 500 ppm (Uromyces appendiculatus) | pest or weed control at 500 ppm (Sphaerotheca fuliginea) | pest or weed control at 500 ppm [2] | pest or weed control at 500 ppm (Puccinia recondita) |
| --- | --- | --- | --- | --- | --- | --- | --- |
| 3.33 | – | N#Cc1cncn1C[C@]1(c2ccc(F)cc2)O[C@H]1c1ccccc1Cl (relative stereo) [I-03, trans 3-[[3-(2-chlorophenyl)-2-(4-fluorophenyl)oxiran-2-yl]methyl]imidazole-4-carbonitrile] | 90 to 100% | 90 to 100% | 90 to 100% | 90 to 100% | – |
| 2.98 | – | N#Cc1cncn1C[C@]1(c2ccc(F)cc2)O[C@@H]1c1ccccc1Cl (relative stereo) [I-04, cis 3-[[3-(2-chlorophenyl)-2-(4-fluorophenyl)oxiran-2-yl]methyl]imidazole-4-carbonitrile] | 80 to 89% | 80 to 89% | 90 to 100% | – | – |
| 3.19 | – | Fc1ccc(C2(Cn3cncc3Cl)OC2c2ccccc2Cl)cc1 (stereo not drawn) [I-01] | 90 to 100% | 90 to 100% | 90 to 100% | 90 to 100% | 90 to 100% |
| 2.62 | – | Fc1ccc(C2(Cn3cncc3F)OC2c2ccccc2Cl)cc1 (stereo not drawn) [I-02] | 90 to 100% | 90 to 100% | 90 to 100% | 90 to 100% | 90 to 100% |
| 3.96 | – | N#Cc1cncn1CC1(c2ccc(C(F)(F)F)cc2)OC1c1ccccc1Cl (stereo not drawn) [I-05] | 90 to 100% | 90 to 100% | 90 to 100% | 90 to 100% | 90 to 100% |
| 3.68 | – | N#Cc1cncn1CC1(c2ccc(Cl)cc2)OC1c1ccccc1Cl (stereo not drawn) [I-06] | 90 to 100% | 90 to 100% | 90 to 100% | 90 to 100% | 90 to 100% |
| 4.11 | – | N#Cc1cncn1CC1(c2ccc(OC(F)(F)F)cc2)OC1c1ccccc1Cl (stereo not drawn) [I-07] | 90 to 100% | 90 to 100% | 90 to 100% | 90 to 100% | 90 to 100% |
| 3.85 | – | N#Cc1cncn1CC1(c2ccc(Br)cc2)OC1c1ccccc1Cl (stereo not drawn) [I-08] | 90 to 100% | 90 to 100% | 90 to 100% | – | – |
| 3.06 | – | N#Cc1cncn1CC1(c2ccc(F)cc2F)OC1c1ccccc1Cl (stereo not drawn) [I-09] | 90 to 100% | 90 to 100% | 90 to 100% | – | – |
| 3.41 | – | N#Cc1cncn1CC1(c2ccc(Cl)cc2)OC1c1ccccc1F (stereo not drawn) [I-10] | 90 to 100% | 90 to 100% | 90 to 100% | 90 to 100% | 90 to 100% |
| 3.83 | – | N#Cc1cncn1CC1(c2ccc(Cl)cc2)OC1c1ccccc1Br (stereo not drawn) [I-11] | 90 to 100% | 90 to 100% | – | 80 to 89% | 90 to 100% |
| 3.06 | – | N#Cc1cncn1CC1(c2ccc(F)cc2)OC1c1ccccc1F (stereo not drawn) [I-12] | 90 to 100% | 90 to 100% | 90 to 100% | 90 to 100% | 90 to 100% |
| 3.44 | – | N#Cc1cncn1CC1(c2ccc(F)cc2)OC1c1ccccc1Br (stereo not drawn) [I-13] | 90 to 100% | 90 to 100% | – | 90 to 100% | 90 to 100% |
| 2.66 | – | Fc1ccc(C2(Cn3cncc3F)OC2c2ccccc2Br)cc1 (stereo not drawn) [I-14] | 90 to 100% | 90 to 100% | 90 to 100% | 90 to 100% | – |
| 1.57 | – | Fc1ccc(C2(Cn3cncc3F)OC2c2cccnc2Cl)cc1 (stereo not drawn) [I-15] | – | – | 90 to 100% | – | – |
| 2.2 | – | N#Cc1cncn1CC1(c2ccc(F)cc2)OC1c1cccnc1Cl (stereo not drawn) [I-16] | – | – | 90 to 100% | – | – |
| – | 2.50 ^[a] | N#Cc1cncn1CC1(c2ccc(F)cc2)OC1c1cccnc1Cl (stereo not drawn) [I-17] | 90 to 100% | 90 to 100% | – | – | – |
| 2.86 | – | COc1ccc(C2(Cn3cncc3C#N)OC2c2ccccc2Cl)cn1 (stereo not drawn) [I-19] | 90 to 100% | 80 to 89% | 90 to 100% | – | 90 to 100% |
| 2.5 | – | N#Cc1cncn1CC1(c2ccc(F)cc2)OC1c1ccnc(Cl)c1 (stereo not drawn) [I-20] | 90 to 100% | 90 to 100% | 90 to 100% | – | 90 to 100% |
| 3.35 | – | N#Cc1cncn1CC1(c2ccc(F)cc2)OC1c1cccc(Cl)c1 (stereo not drawn) [I-21] | 80 to 89% | 90 to 100% | 90 to 100% | – | 90 to 100% |
| 3.26 | – | COc1ccc(C2(Cn3cncc3C#N)OC2c2ccccc2Cl)cc1 (stereo not drawn) [I-22] | 90 to 100% | 90 to 100% | 90 to 100% | – | 90 to 100% |
| 3.44 | – | N#Cc1cncn1CC1(c2ccc(F)cc2)OC1c1cccc(Br)c1 (stereo not drawn) [I-23] | 90 to 100% | 90 to 100% | 90 to 100% | – | 90 to 100% |
| 3.37 | – | N#Cc1cncn1CC1(c2ccc(F)cc2)OC1c1ccc(Cl)cc1 (stereo not drawn) [I-24] | 90 to 100% | 90 to 100% | 90 to 100% | – | 90 to 100% |
| 3.8 | – | N#Cc1cncn1CC1(c2ccc(Cl)cc2F)OC1c1ccccc1Cl (stereo not drawn) [I-25] | 90 to 100% | 90 to 100% | 90 to 100% | 90 to 100% | 90 to 100% |
| 3.71 | – | N#Cc1cncn1CC1(c2ccc(F)cc2Cl)OC1c1ccccc1Cl (stereo not drawn) [I-29] | 90 to 100% | 90 to 100% | 90 to 100% | 90 to 100% | 90 to 100% |
